Where no end group is shown, it is not given here.
Legend:
BAK1 gene = BAK1 gene expression in roots (semi-quantitative RT-PCR and qRT-PCR); type: in vivo, Arabidopsis thaliana; details: 1 μM, 1 h, Arabidopsis seedlings
Experimental: Arabidopsis plants were grown for 10 days in vertical plates and then treated in liquid medium containing 1 μM AtRALF1 for 1 h at room temperature. Control plants were incubated under identical conditions in a peptide-free medium. The total RNA was isolated from the roots of Arabidopsis plants using TRIzol reagent according to the manufacturer’s instructions (Life Technologies). The cDNA was synthesized using the ImProm-II Reverse Transcription System (Promega) and 1 μg of RNA. An aliquot of cDNA (1.5 μl) was used as the template in the PCR reaction, which was performed for 29 cycles, unless indicated otherwise, using gene-specific primers (S1 Table). The glyceraldehyde 3-phosphate dehydrogenase (GAPDH) gene was used as an internal control. All experiments were repeated at least three times with independent biological replicates. The data shown are from one representative experiment.
The qRT-PCR analysis was performed using 10-fold-diluted cDNA, Maxima SYBR Green Rox/qPCR Master Mix (Thermo Scientific) and a StepOne Real-Time PCR System (Applied Biosystems). The glyceraldehyde 3-phosphate dehydrogenase (GAPDH) gene was used as an internal control. […] The threshold cycle (CT) was determined by the instrument, and the ΔΔCT method was used to calculate the fold change in each gene. […] Three replicates were analyzed for each biological sample, and two biological samples were analyzed. […]

[1] = system: BAK1 gene promoter / BAK1-GFP; experiment: Quantification of GFP in roots of pBAK1:BAK1-GFP plants; type: in vivo, Arabidopsis thaliana; details: 1 μM, 4 h
Experimental: Transgenic Arabidopsis plants were grown for 4 days in liquid medium and treated with 1 μM AtRALF1 for 4 h. After 4 h of agitation at room temperature, the intensity of GFP in the roots was analyzed by confocal microscopy (Olympus FV1000). Control plants were kept in a peptide-free medium. The GFP excitation wavelength was 488 nm, and the emission wavelength was 540 nm. Images were generated by a scanner depth of 7 μm. Ten slices per root were generated and compacted in one image. Image processing was performed using the Olympus FluoView software. An average of 20 seedlings were observed under the microscope in at least 3 different experiments using independent biological replicates.

[2] = system: intact Arabidopsis seedlings; experiment: Binding assay with acridinium-labeled AtRALF34, intact seedlings; parameters: species or system Arabidopsis thaliana; details: 10-fold excess of unlabeled AtRALF1
Experimental: Arabidopsis seedlings were grown for 5 days on vertical plates. Roots were homogenized in extraction buffer [300 mM sucrose, 100 mM Tris-HCl pH 7.5, 25 mM EDTA, 25 mM NaF, 1 mM Na2MoO4, 1 mM PMSF and protease inhibitor cocktail (Roche), adjusted to pH 6.2], and the homogenate was spun at 2,000 x g for 10 min at 4 °C. The supernatant was recovered and centrifuged at 100,000 x g for 50 min at 4 °C to precipitate the microsomal pellet. The pellet was resuspended in the extraction buffer plus 0.5% Triton-X. Seedlings or microsomal fractions were placed in 200 μl of medium and incubated with 7 nM acridinium-labeled peptide (acriAtRALF1 or acriAtRALF34) and different concentrations of AtRALF1, AtRALF34 or RALF1(9–49) for 15–20 min at 4 °C on a shaker. After incubation, the seedlings or microsomal fractions were washed three times with the same medium. Unless indicated otherwise, five entire seedlings and approximately 10 ng of microsomal fractions were used per treatment. The resulting luminescence emissions from the acridinium were measured using a microplate reader (Biotec ELx 800) at 2 s after injecting 50 μl of a solution containing 20 mM H2O2 in 0.1 M NaOH. These experiments were repeated at least three times using independent biological replicates. Duplicates were used for each concentration or treatment. The data shown are from one representative experiment. […]

[3] = system: Arabidopsis seedlings, primary root; details: wild-type Arabidopsis; ref [5]; cited from earlier work
Experimental: To better understand the role of AtRALF1 and BRs in regulating cell expansion, we exposed different mutants and transgenic Arabidopsis plants with altered BR signaling pathways to the peptide hormone AtRALF1 at concentrations that inhibit root growth. Loss-of-function mutants (bri1-301, bsk3-2 and bak1-4), gain-of-function mutants (sud1, bes1-D and bzr1-D) and two overexpressor lines (BRI OX and DWF4 OX) were used in the root growth assays in the presence or absence of 10 μM AtRALF1 (Fig 1A).

cell suspensions = details: cited from earlier work

AtRALF1: root-specific RALF isoform in Arabidopsis; recombinant peptide hormone produced in E. coli (ATTKYISYQSLKRNSVPCSRRGASYYNCQNGAQANPYSRGCSKIARCRS; ends and bridges not checked; cysteine pairing not given here)
BAK1 gene expression in roots (BAK1 gene): induced BAK1 gene expression in the roots up to levels found in untreated p35S:AtRALF1 roots
BAK1-GFP fluorescent signal in roots [1]: quantitative increase in fluorescent signal in the roots
effect of unlabeled AtRALF1 on total acriAtRALF34 binding [2]: did not alter the total binding
primary root growth inhibition [3]: inhibits the primary root growth of wild-type Arabidopsis plants
alkalinization of the extracellular media (cell suspensions; ref [1],[11]): induces a rapid alkalinization of the extracellular media of cell suspensions
alkalinization of the extracellular medium (cell suspensions; ref [5]): alkalinizes the extracellular medium of cell suspensions
